According to patent publication US10220064B2, “Carbohydrate composition extracted from Panax ginseng and its use in the treatment of ischemic conditions” (Macau University of Science and Technology, priority 2016, dated 2019):

What was measured:
H/R-induced H9c2 cells = experiment: Impact of survival pathway inhibitors on AP1-induced cardio-protection (MVS assay); conditions: with 200 μg/mL AP1; mifepristone 100 μM, tamoxifen 100 μM, L-NAME 10 μM, LY294002 40 μM, Akt inhibitor IV 10 μM, U0126 40 μM (FIG. 11)
Method: H9c2 cells were pre-cultured in the presence or absence of survival pathway inhibitors, including mifepristone (MP, 100 μM), tamoxifen (TX, 100 μM), L-NAME (LM, 10 μmol/L), LY294002 (LY, 40 μM), Akt inhibitor IV (IV, 10 μM), U0126 (40 μM) with or without 200 μg/mL AP1 for 1 h, and then exposed further to H/R injury. The normal group (NOR) was always maintained in normoxic condition. Cell death was assessed by MVS assay. All measurements were repeated in six wells, the results are the average of three independent experiments. All values are expressed as mean±SD. ^^^P<0.001 vs. NOR, ***P<0.001 vs. H/R, ^##P<0.01 vs. AP1 under H/R, ^###P<0.001 vs. AP1 under H/R.
To examine the effectiveness of RSE and AP1 on H9c2 cells under hypoxia/reoxygenation conditions, the cells were cultured under normoxic conditions (95% air/5% CO2) overnight; then the cells were washed twice with Krebs-Ringer Bicarbonate buffer (composition in mM: NaCl 115, KCl 4.7, CaCl2 2.5, KH2PO4 1.2, MgSO4 1.2, NaHCO3 24, HEPES 10; pH 7.4) balanced with N2 at 4° C. for overnight. Aliquots (100 μL) of KRB supplemented with 0.01% (w/v) BSA were added to the cells immediately prior to hypoxia. To create a hypoxia condition, a hypoxic chamber (Stem Cell Technologies, USA) was used to produce an in vitro hypoxia challenge (Chiu, P. Y. et al., Molecular and cellular biochemistry 350, 237-250, 2011). In essence, the cells were placed in the sealed chamber and the chamber was flushed with pure N2 for 5 min at a flow rate of 20 mL/min, then, all sealable connectors were closed. After that, the chamber was transferred to an incubator and the cells in the chamber were subjected to 3 h incubation at 37° C. to induced hypoxia. Reoxygenation was initiated by opening the chamber and then replacing the KRB with fresh DMEM medium, the cells were then cultured in an incubator under normoxic conditions (95% air/5% CO2) at 37° C. for another 4 h.
The cells were seeded at the density of 8×10^4 cells/well in a 96-well plate. […] The control normal group was always maintained in normal DMEM and put in the incubator under normoxic atmosphere (95% air/5% CO2). For pharmaceutical blockages, the cells were treated with mifepristone (an inhibitor of GR, 100 μM), tamoxifen (an inhibitor of ER, 100 μM), L-NAME (an inhibitor of NOS, 10 μM), LY294002 (an inhibitor of PI3K, 40 μM), Akt inhibitor IV (an inhibitor of Akt protein kinase, 10 μM), U0126 (an inhibitor of Erk1/2, 40 μM) right before the pretreatment of AP1 (200 μg/mL).
The cell viability was evaluated by MVS assay (Sathishkumar, K. et al., Free Radicals and Antioxidant Protocols, 51-61, 2010). Briefly, at the end of the cell culture, the cells were overlaid with 100 μL of 2×mitochondrial viability stain in each well containing 100 μL of medium and then incubated under normoxic condition (95% air/5% CO2) for 4 h in the dark. The fluorescent intensity was measured at excitation 550 nm and emission 590 nm by a TECAN Infinite M200 micro plate reader (Tecan, Durham, USA).

H9c2 cells [1] = experiment: Cell morphology in the H/R model; type: cell-based, rat; conditions: 100 μM, pretreatment, H/R (FIG. 8E)
Excerpt: FIG. 8A through 8E show the cell morphology of H9c2 cell pretreated with the carbohydrate composition AP1 in the H/R model. […] All photos (magnification power 200×) were taken after reoxygenation.
The medium was changed every two days, and the confluent cells were passaged by trypsinization weekly. The cells passaged for three to four times were used for experiments described as below.

H9c2 cells [2] = experiment: Flow cytometric analysis of cardiomyocyte apoptosis (Annexin V/PI); type: cell-based, rat; conditions: 100 μM, H/R, H/R group 46.0%
Excerpt: The normal group (Normal) was always maintained in normoxic condition. The cells were then stained with Annexin V-FITC and PI for apoptosis analysis by flow cytometry. Cells in the lower-left quadrant (Q3), unstained for both Annexin V-FITC and PI, are defined as viable cells. Cells in the lower-right quadrant (Q4), stained for Annexin V-FITC but negative for PI, are defined as early-medium apoptotic cells. Cells in the upper-right quadrant (Q2), positive for both Annexin V-FITC and PI, are defined as late apoptotic and necrotic populations. […] The percentage of apoptotic cells measured using the Annexin-V/PI kit for flow cytometry as manufacturer's instruction. […] Cells were re-suspended in 1× binding buffer containing propidium iodide (PI) and FITC-labelled Annexin V and incubated for 15 min at 37° C. in the dark, and analyzed with flow cytometry (FACS Vantage-BD Sciences, USA). The data was analyzed using Flow J software for determining the percent of apoptotic cells.

[3] = test system: NO in culture medium of H9c2 cells; experiment: Nitric oxide (NO) production, Griess reaction; type: cell-based, rat; conditions: L-NAME 10 μmol/L, H/R (FIG. 12)
Method: FIG. 12 illustrates the effect of carbohydrate composition AP1 on NO production. […] The normal group (Normal) was always maintained in normoxic condition. The changes of NO levels in culture medium of H9c2 cells following H/R injury were determined by Griess reagent.
The concentration of NO in the culture medium was determined by the Griess reaction with minor changes (Chen, X. P. et al., Journal of Neuroinflammation 9, 2012). At the end of the cell culture, 40 μL cell culture fluid, 10 μL NADPH, and 40 μL basal solution (0.03 M PBS; 1.25 mM glucose-6-phosphate; 400 U/L glucose-6-phosphate dehydrogenase; 200 U/L nitrate reeducates) was incubated in a 96 well microtiter plate for 45 min at room temperature. Next, 50 μL Griess reagent was added and the solution incubated for 20 min in the dark at room temperature. Finally, the absorbance of the samples was measured at 540 nm. Concentrations of NO in the sample were calibrated with a reference standard of sodium nitrite (NaNO2) supplied with the kit and the levels of NO were expressed as μM.

| Structure (SMILES) | effect of inhibitor on protective effects of AP1 on H/R-induced cell death (H/R-induced H9c2 cells) | also measured |
| --- | --- | --- |
| CC[n+]1c(/C=C/N(C)c2ccccc2)n(-c2ccccc2)c2ccc(-c3nc4ccccc4s3)cc21.[I-] [Akt inhibitor IV] | abolished the protective effects of AP1 |  |
| CC1=NS(=O)(=O)c2cc(Cl)ccc2N1 [DZ, diazoxide] |  | protection in H/R induced cell death (H9c2 cells [1]): significant protection; apoptosis (apoptotic cell accumulation) (H9c2 cells [2]): 22.2±3.8% |
| COC(=O)[C@@H](N)CCCNC(=N)N[N+](=O)[O-] [L-NAME] | abolished the protective effects of AP1 | NO production [3]: significantly abolished |
| N#CC(=C(/N)Sc1ccccc1N)/C(C#N)=C(\N)Sc1ccccc1N [U0126] | abolished the protective effects of AP1 |  |
| CC#C[C@]1(O)CC[C@H]2[C@@H]3CCC4=CC(=O)CCC4=C3[C@@H](c3ccc(N(C)C)cc3)C[C@@]21C [mifepristone] | abolished the protective effects of AP1 |  |
| CC/C(=C(\c1ccccc1)c1ccc(OCCN(C)C)cc1)c1ccccc1 [tamoxifen] | abolished the protective effects of AP1 |  |
